The values below come from PMC3689634, “Self-assembled peptide amphiphiles function as multivalent binder with increased hemagglutinin affinity” (BMC Biotechnology, 2013).

Entries after “also recorded” stand apart in the source; their conditions may differ.

Test [1] deals with HA receptor (hemagglutinin). The note with it: monovalent binding; cited from earlier work.
The subject of test [2] is hemagglutinin H5 (HA1 aa 17–338, A/chicken/Jilin/9/2004 (H5N1)). The class given is binding, influenza A virus (H5N1). The settings on record: pH 7.4.

In the case of `CC(=O)N[C@H]1[C@H]([C@H](O)[C@H](O)CO)OC(O)(C(=O)O)C[C@@H]1O` (some centres unmarked) [SA, sialic acid], in test [1], the “association constant, single SA molecule to a single HA receptor” value is 10^3 M^-1.
As to C16-GSWGEW [negative control], the “SPR binding signal to immobilised H5 (in words)” value in test [2] is recorded as “no binding affinity; also recorded: no quantitative measurable signal changes”.
